Patent US8501770B2 (ArQule, Inc., priority 2009, dated 2013)

biological target: Full-length inactive AKT1 (Homo sapiens, UniProt P31749); test: Inactive Akt Alpha Screen Assay; assay type: biochemical; conditions: values not marked with "*"; read-out: Akt1 IC50, (AlphaScreen)
Outline: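 AlphaScreen read-out (excitation 640 nm, emission 570 nm) after 90 min incubation at room temperature in the dark. Signal comes from crosstide phosphorylation by AKT1, which was activated by added PDK1, MAPKAPK2, ATP and lipid vesicles, captured via phospho-AKT substrate antibody and streptavidin beads.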

Sequence of Full-length inactive AKT1 (P31749 whole entry): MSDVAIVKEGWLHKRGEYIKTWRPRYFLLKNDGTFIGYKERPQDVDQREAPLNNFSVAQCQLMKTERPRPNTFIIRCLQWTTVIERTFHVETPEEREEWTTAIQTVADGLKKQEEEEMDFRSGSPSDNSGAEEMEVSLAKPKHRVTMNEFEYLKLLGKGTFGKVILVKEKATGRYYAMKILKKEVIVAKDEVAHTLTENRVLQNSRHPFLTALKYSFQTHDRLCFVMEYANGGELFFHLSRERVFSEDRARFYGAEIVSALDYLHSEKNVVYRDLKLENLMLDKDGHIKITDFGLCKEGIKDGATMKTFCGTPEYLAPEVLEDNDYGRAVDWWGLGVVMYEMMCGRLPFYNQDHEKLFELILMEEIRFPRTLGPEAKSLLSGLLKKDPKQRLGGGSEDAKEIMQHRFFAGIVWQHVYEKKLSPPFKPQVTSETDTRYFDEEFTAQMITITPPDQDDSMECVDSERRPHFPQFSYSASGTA

| Structure (SMILES) | IC50 |
| --- | --- |
| Cc1cnc2c(c1)nc(-c1cccnc1N)n2-c1ccc(CNC(=O)Cc2ccccc2)cc1 [Example 219, N-(4-(2-(2-aminopyridin-3-yl)-6-methyl-3H-imidazo[4,5-b]pyridin-3-yl)benzyl)-2-phenylacetamide] | 230 nM |
| CC(=O)Nc1ccc(C(=O)NCc2ccc(-n3c(-c4cccnc4N)nc4cc(C)cnc43)cc2)cc1 [Example 220, 4-acetamido-N-(4-(2-(2-aminopyridin-3-yl)-6-methyl-3H-imidazo[4,5-b]pyridin-3-yl)benzyl)benzamide] | 54 nM |
| COc1ccccc1C(=O)NCc1ccc(-n2c(-c3cccnc3N)nc3cc(C)cnc32)cc1 [Example 221, N-(4-(2-(2-aminopyridin-3-yl)-6-methyl-3H-imidazo[4,5-b]pyridin-3-yl)benzyl)-2-methoxybenzamide] | 260 nM |
| Cc1cnc2c(c1)nc(-c1cccnc1N)n2-c1ccc(CNC(=O)c2ccc(N(C)C)cc2)cc1 [Example 222, N-(4-(2-(2-aminopyridin-3-yl)-6-methyl-3H-imidazo[4,5-b]pyridin-3-yl)benzyl)-4-(dimethylamino)benzamide] | 43 nM |
| Cc1cnc2c(c1)nc(-c1cccnc1N)n2-c1ccc(CNC(=O)c2ccccc2C)cc1 [Example 223, N-(4-(2-(2-aminopyridin-3-yl)-6-methyl-3H-imidazo[4,5-b]pyridin-3-yl)benzyl)-2-methylbenzamide] | 30 nM |
| Cc1cnc2c(c1)nc(-c1cccnc1N)n2-c1ccc(CNC(=O)c2cccc3ccccc23)cc1 [Example 224, N-(4-(2-(2-aminopyridin-3-yl)-6-methyl-3H-imidazo[4,5-b]pyridin-3-yl)benzyl)-1-naphthamide] | 50 nM |
| Cc1cnc2c(c1)nc(-c1cccnc1N)n2-c1ccc(CNC(=O)c2ccccc2Cc2ccccc2)cc1 [Example 225, N-(4-(2-(2-aminopyridin-3-yl)-6-methyl-3H-imidazo[4,5-b]pyridin-3-yl)benzyl)-2-benzylbenzamide] | 11 nM |
| Nc1ncccc1-c1nc2ccc(-c3ccc(CO)cc3)nc2n1-c1ccc(CNC(=O)c2ccccc2)cc1 [Example 226, N-(4-(2-(2-aminopyridin-3-yl)-5-(4-(hydroxymethyl)phenyl)-3H-imidazo[4,5-b]pyridin-3-yl)benzyl)benzamide] | 18 nM |
| Cc1cnc2c(c1)nc(-c1cccnc1N)n2-c1ccc(CNC(=O)OC(C)(C)C)cc1 [Example 227, tert-butyl 4-(2-(2-aminopyridin-3-yl)-6-methyl-3H-imidazo[4,5-b]pyridin-3-yl)benzylcarbamate] | 470 nM |
| Cc1cnc2c(c1)nc(-c1cccnc1N)n2-c1ccc(CNC(=O)c2ccc(F)cc2)cc1 [Example 228, N-(4-(2-(2-aminopyridin-3-yl)-6-methyl-3H-imidazo[4,5-b]pyridin-3-yl)benzyl)-4-fluorobenzamide] | 240 nM |
| CC(=O)Nc1cccc(C(=O)NCc2ccc(-n3c(-c4cccnc4N)nc4cc(C)cnc43)cc2)c1 [Example 229, 3-acetamido-N-(4-(2-(2-aminopyridin-3-yl)-6-methyl-3H-imidazo[4,5-b]pyridin-3-yl)benzyl)benzamide] | 25 nM |
| Cc1cnc2c(c1)nc(-c1cccnc1N)n2-c1ccc(CNC(=O)c2ccc(C(C)C)cc2)cc1 [Example 230, N-(4-(2-(2-aminopyridin-3-yl)-6-methyl-3H-imidazo[4,5-b]pyridin-3-yl)benzyl)-4-isopropylbenzamide] | 190 nM |
| Cc1cnc2c(c1)nc(-c1cccnc1N)n2-c1ccc(CNC(=O)c2ccc3nc(C)ccc3c2)cc1 [Example 231, N-(4-(2-(2-aminopyridin-3-yl)-6-methyl-3H-imidazo[4,5-b]pyridin-3-yl)benzyl)-2-methylquinoline-6-carboxamide] | 20 nM |
| Cc1cnc2c(c1)nc(-c1cccnc1N)n2-c1ccc(CNC(=O)c2cccc(F)c2)cc1 [Example 232, N-(4-(2-(2-aminopyridin-3-yl)-6-methyl-3H-imidazo[4,5-b]pyridin-3-yl)benzyl)-3-fluorobenzamide] | 41 nM |
| CC(C)c1ccc(C(=O)NCc2ccc(-n3c(-c4cccnc4N)nc4cc(-c5cccnc5)cnc43)cc2)cc1 [Example 233, N-(4-(2-(2-aminopyridin-3-yl)-6-(pyridin-3-yl)-3H-imidazo[4,5-b]pyridin-3-yl)benzyl)-4-isopropylbenzamide] | 140 nM |
| Nc1ncccc1-c1nc2cc(F)cnc2n1-c1ccc(CC(=O)Nc2ccccc2)cc1 [Example 234, 2-(4-(2-(2-aminopyridin-3-yl)-6-fluoro-3H-imidazo[4,5-b]pyridin-3-yl)phenyl)-N-phenylacetamide] | 53 nM |
| Nc1ncccc1-c1nc2ccc(-c3ccncc3)nc2n1-c1ccc(CNC(=O)c2ccccc2)cc1 [Example 235, N-(4-(2-(2-aminopyridin-3-yl)-5-(pyridin-4-yl)-3H-imidazo[4,5-b]pyridin-3-yl)benzyl)benzamide] | 130 nM |

| Structure (SMILES) | IC50 |
| --- | --- |
| CC(=O)Nc1ccc(-c2ccc3nc(-c4cccnc4N)n(-c4ccc(CNC(=O)c5ccccc5)cc4)c3n2)cc1 [Example 236, N-(4-(5-(4-acetamidophenyl)-2-(2-aminopyridin-3-yl)-3H-imidazo[4,5-b]pyridin-3-yl)benzyl)benzamide] | 33 nM |
| Nc1ncccc1-c1nc2cc(-c3cc[nH]c3)cnc2n1-c1ccc(CNC(=O)c2ccccc2)cc1 [Example 237, N-(4-(2-(2-aminopyridin-3-yl)-6-(1H-pyrrol-3-yl)-3H-imidazo[4,5-b]pyridin-3-yl)benzyl)benzamide] | 32 nM |
| CC(=O)Nc1ccc(C(=O)NCc2ccc(-n3c(-c4cccnc4N)nc4cc(-c5cccnc5)cnc43)cc2)cc1 [Example 238, 4-acetamido-N-(4-(2-(2-aminopyridin-3-yl)-6-(pyridin-3-yl)-3H-imidazo[4,5-b]pyridin-3-yl)benzyl)benzamide] | 42 nM |
| Nc1ncccc1-c1nc2cc(-c3cccnc3)cnc2n1-c1ccc(CNC(=O)c2cccc(F)c2)cc1 [Example 239, N-(4-(2-(2-aminopyridin-3-yl)-6-(pyridin-3-yl)-3H-imidazo[4,5-b]pyridin-3-yl)benzyl)-3-fluorobenzamide] | 21 nM |
| Nc1ncccc1-c1nc2cc(-c3ccc(C(=O)O)o3)cnc2n1-c1ccc(CNC(=O)c2ccccc2)cc1 [Example 240, 5-(2-(2-aminopyridin-3-yl)-3-(4-(benzamidomethyl)phenyl)-3H-imidazo[4,5-b]pyridin-6-yl)furan-2-carboxylic acid] | 16 nM |
| CCOC(=O)Cc1ccc(-n2c(-c3cccnc3N)nc3ccc(Cl)nc32)cc1 [Example 241, ethyl 2-(4-(2-(2-aminopyridin-3-yl)-5-chloro-3H-imidazo[4,5-b]pyridin-3-yl)phenyl)acetate] | 330 nM |
| CCOC(=O)Cc1ccc(-n2c(-c3cccnc3N)nc3ccc(-c4cccnc4)nc32)cc1 [Example 242, ethyl 2-(4-(2-(2-aminopyridin-3-yl)-5-(pyridin-3-yl)-3H-imidazo[4,5-b]pyridin-3-yl)phenyl)acetate] | 64 nM |
| CCOC(=O)Cc1ccc(-n2c(-c3cccnc3N)nc3ccc(-c4cccc(NC(C)=O)c4)nc32)cc1 [Example 243, ethyl 2-(4-(5-(3-acetamidophenyl)-2-(2-aminopyridin-3-yl)-3H-imidazo[4,5-b]pyridin-3-yl)phenyl)acetate] | 320 nM |
| Cc1ccc2cc(C(=O)NCc3ccc(-n4c(-c5cccnc5N)nc5cc(-c6cccnc6)cnc54)cc3)ccc2n1 [Example 244, N-(4-(2-(2-aminopyridin-3-yl)-6-(pyridin-3-yl)-3H-imidazo[4,5-b]pyridin-3-yl)benzyl)-2-methylquinoline-6-carboxamide] | 22 nM |
| Cc1ccc2nc(-c3cccnc3N)n(-c3ccc(CNC(=O)c4ccc(C(C)C)cc4)cc3)c2n1 [Example 245, N-(4-(2-(2-aminopyridin-3-yl)-5-methyl-3H-imidazo[4,5-b]pyridin-3-yl)benzyl)-4-isopropylbenzamide] | 14 nM |
| Cc1ccc2nc(-c3cccnc3N)n(-c3ccc(CNC(=O)c4ccccc4)cc3)c2n1 [Example 246, N-(4-(2-(2-aminopyridin-3-yl)-5-methyl-3H-imidazo[4,5-b]pyridin-3-yl)benzyl)benzamide] | 20 nM |
| Cc1ccc2nc(-c3cccnc3N)n(-c3ccc(CNC(=O)c4cccc(F)c4)cc3)c2n1 [Example 247, N-(4-(2-(2-aminopyridin-3-yl)-5-methyl-3H-imidazo[4,5-b]pyridin-3-yl)benzyl)-3-fluorobenzamide] | 16 nM |
| CC(=O)Nc1cccc(C(=O)NCc2ccc(-n3c(-c4cccnc4N)nc4ccc(C)nc43)cc2)c1 [Example 248, 3-acetamido-N-(4-(2-(2-aminopyridin-3-yl)-5-methyl-3H-imidazo[4,5-b]pyridin-3-yl)benzyl)benzamide] | 28 nM |
| CC(=O)Nc1ccc(C(=O)NCc2ccc(-n3c(-c4cccnc4N)nc4ccc(C)nc43)cc2)cc1 [Example 249, 4-acetamido-N-(4-(2-(2-aminopyridin-3-yl)-5-methyl-3H-imidazo[4,5-b]pyridin-3-yl)benzyl)benzamide] | 25 nM |
| CC(C)(C)OC(=O)NCc1ccc(-n2c(-c3cccnc3N)nc3cc(-c4cccnc4)cnc32)cc1 [Example 250, tert-butyl 4-(2-(2-aminopyridin-3-yl)-6-(pyridin-3-yl)-3H-imidazo[4,5-b]pyridin-3-yl)benzylcarbamate] | 200 nM |
| Cn1cccc1C(=O)NCc1ccc(-n2c(-c3cccnc3N)nc3cc(-c4cccnc4)cnc32)cc1 [Example 252, N-(4-(2-(2-aminopyridin-3-yl)-6-(pyridin-3-yl)-3H-imidazo[4,5-b]pyridin-3-yl)benzyl)-1-methyl-1H-pyrrole-2-carboxamide] | 170 nM |
| CC(=O)Nc1ccc(-c2ccc3nc(-c4cccnc4N)n(-c4ccc(NC(=O)c5ccccc5)cc4)c3n2)cc1 [Example 253, N-(4-(5-(4-acetamidophenyl)-2-(2-aminopyridin-3-yl)-3H-imidazo[4,5-b]pyridin-3-yl)phenyl)benzamide] | 27 nM |
